Laboratory results published in patent publication US9328075B2 (St. Jude Children's Research Hospital, priority 2011, dated 2016).
pIC50: −log10 of the molar value.

How the values were obtained:
[1] = molecular target: IRdRp (PB2, PB1, PA and NP from the strain A/Vietnam/1203/04 (H1N1)) (Influenza A virus, UniProt Q5EP34); experiment: cell-based; set-up: species or system influenza A/Vietnam/1203/04 (H1N1)
[2] = in vitro; settings: dog
[3] = tested on: A/Puerto Rico/8/34 (H1N1); experiment: microbe, parasite or virus in culture; settings: Influenza A virus, H1N1, MDCK, 48 h, read-out: Growth Inhibition (%) 20 μM 48 h
[4] = in vitro; settings: human

## CCCCC(CC)CNC(=O)c1nc(-c2ccccn2)nc(O)c1O (stereo not shown)
[1]
  pIC50: 5.37
[2]
  CC50 at 72 h: > 25 µM
[3]
  inhibition at 20 µM: 94%
[4]
  CC50 at 72 h: < 25 µM

## CCCCCC(C)NC(=O)c1nc(-c2ccccn2)nc(O)c1O (stereo not shown)
[1]
  pIC50: 4.85
[2]
  CC50 at 72 h: > 25 µM
[3]
  inhibition at 20 µM: 88%
[4]
  CC50 at 72 h: < 25 µM

## CC(C)(C)CCNC(=O)c1nc(-c2ccccn2)nc(O)c1O
[1]
  pIC50: 5.00
[2]
  CC50 at 72 h: > 25 µM
[3]
  inhibition at 20 µM: 88%
[4]
  CC50 at 72 h: < 25 µM

## CC(C)CC(C)NC(=O)c1nc(-c2ccccn2)nc(O)c1O (stereo not shown)
[1]
  pIC50: 4.89
[2]
  CC50 at 72 h: > 25 µM
[3]
  inhibition at 20 µM: 50%
[4]
  CC50 at 72 h: > 25 µM

## CC1CCCCC1NC(=O)c1nc(-c2ccccn2)nc(O)c1O (stereo not shown)
[1]
  pIC50: 5.26
[2]
  CC50 at 72 h: 5.5 µM
[3]
  inhibition at 20 µM: 97%
[4]
  CC50 at 72 h: < 25 µM

## CC1CCC(NC(=O)c2nc(-c3ccccn3)[nH]c(=O)c2O)CC1 (stereo not shown)
[1]
  pIC50: 5.25
[2]
  CC50 at 72 h: > 25 µM
[3]
  inhibition at 20 µM: 88%
[4]
  CC50 at 72 h: < 25 µM

## O=C(NCc1cccc2ccccc12)c1nc(-c2ccccn2)[nH]c(=O)c1O
[1]
  pIC50: 5.04
[2]
  CC50 at 72 h: > 25 µM
[3]
  inhibition at 20 µM: 94%
[4]
  CC50 at 72 h: < 25 µM

## O=C(NC1CCCc2ccccc21)c1nc(-c2ccccn2)[nH]c(=O)c1O (stereo not shown)
[1]
  pIC50: 5.44
[2]
  CC50 at 72 h: 7 µM
[3]
  inhibition at 20 µM: 97%
[4]
  CC50 at 72 h: 2.6 µM

## Cc1cccc(NC(=O)c2nc(-c3ccccn3)nc(O)c2O)c1
[1]
  pIC50: 4.57
[2]
  CC50 at 72 h: > 25 µM
[3]
  inhibition at 20 µM: 75%
[4]
  CC50 at 72 h: < 25 µM

## CC(C)(C)c1cccc(NC(=O)c2nc(-c3ccccn3)nc(O)c2O)c1
[1]
  pIC50: 5.23
[2]
  CC50 at 72 h: > 25 µM
[3]
  inhibition at 20 µM: 94%
[4]
  CC50 at 72 h: < 25 µM

## Cc1ccccc1NC(=O)c1nc(-c2ccccn2)nc(O)c1O
[1]
  pIC50: 5.05
[2]
  CC50 at 72 h: > 25 µM
[3]
  inhibition at 20 µM: 94%
[4]
  CC50 at 72 h: > 25 µM

## COc1ccc(NC(=O)c2nc(-c3ccccn3)nc(O)c2O)c(C)c1
[1]
  pIC50: 5.00
[2]
  CC50 at 72 h: > 25 µM
[3]
  inhibition at 20 µM: 0%
[4]
  CC50 at 72 h: < 25 µM

## CC(CNC(=O)c1nc(-c2ccccn2)nc(O)c1O)c1ccccc1 (stereo not shown)
[1]
  pIC50: 4.69
[2]
  CC50 at 72 h: > 25 µM
[3]
  inhibition at 20 µM: 50%
[4]
  CC50 at 72 h: < 25 µM
